From patent EP4670722A1, “PROPHYLACTIC OR AMELIORATING AGENT FOR CELL AGING” (Kyowa Pharma Chemical Co., Ltd., priority 2023, dated 2024)

Experiments:
GLS1 [1] = experiment: GLS1 expression analysis (ELISA) in Gin-1; format: cell-based; details: human gingival fibroblasts (Gin-1), 50 µg/mL to 1000 µg/mL, 24 hours; effect increased as content increased; Fig. 12
Protocol: Human gingival fibroblasts (Gin-1) were cultured in DMEM containing 10% FBS. The cultured cells were collected by trypsin treatment. Cells in a state where GLS1 was expressed without addition of the test sample were used for the test. Cells collected by trypsin treatment were seeded in a 6-well plate, and when they reached 80% confluence, DMEM containing the test sample (2'-FL and lactose) at 50 µg/mL, 200 µg/mL, or 1000 µg/mL was added, and cultured for 24 hours in a 37°C, 5% CO2 incubator. The culture supernatant was removed, the cells were washed twice with PBS, and 0.20 mL of RIPA buffer was added to extract total protein. Protein in each protein extract was quantified by the Bradford assay.
(§1) Protein extracts were collected in the same manner as in [Example 10-1 B. Human gastric undifferentiated carcinoma cells (KKLS)], [Example 10-1 C. Mouse microglial cells (BV2)], [Example 10-1 D. Human gingival fibroblasts (Gin-1)], and [Example 10-1 E. Human umbilical vein endothelial cells (HUVEC)], respectively, except that a medium same as the above-mentioned medium but not containing the test sample was used instead of the medium containing the test sample, and protein in each protein extract was quantified by the Bradford assay.
(§2) An ELISA method was performed using an antibody against GLS1 to measure the amount of GLS1 in the samples. […]

laminin = experiment: Laminin secretion amount (ELISA) of tunicamycin-treated epidermal keratinocytes; format: cell-based, Human; details: HaCaT, tunicamycin 0.1 µg/mL, 50 µg/mL to 200 µg/mL, 24 hours; recovery increased as content increased; Fig. 7
Protocol: Human normal epidermal keratinocytes (HaCaT) were cultured using DMEM containing 10% FBS. The cultured cells were collected by trypsin treatment. The collected cells were seeded in a 24-well plate, and when they reached 100% confluence, tunicamycin was added at 0.1 µg/mL, and after 24 hours, the culture supernatant was collected. A group was also prepared in which FBS-free DMEM medium containing a test sample (2'-fucosyllactose) at 50 µg/mL, 100 µg/mL, or 200 µg/mL was added simultaneously with tunicamycin, and after 24 hours, the culture supernatant was collected. The culture supernatant was centrifuged, and the resulting supernatant was used as a sample. […] This total cell protein concentration was measured by the Bradford assay.
Human normal epidermal keratinocytes were cultured and the culture supernatant was collected in the same manner as in Example 6-1, except that tunicamycin and the test sample were not added. […] This total cell protein concentration was measured by the Bradford assay.
An Enzyme-Linked Immunosorbent Assay (ELISA) method was performed using an antibody against laminin to measure the amount of laminin in the sample. […] After stopping the reaction, the absorbance at a measurement wavelength of 450 nm was measured with a microplate reader. […]

GLS1 [2] = experiment: GLS1 expression analysis (ELISA) in BV2; format: cell-based; details: mouse microglial cells (BV2), at least 200 µg/mL or more, 24 hours; effect increased from 200 to 1000 µg/mL; Fig. 12
Protocol: Mouse microglial cells (BV2) were cultured in glutamine-containing DMEM. The cultured cells were collected by trypsin treatment. The collected cells were seeded in a 6-well plate at a cell density of 4 x 10^5 cells/well and cultured for 24 hours in a 37°C, 5% CO2 incubator. After culturing, glutamine-free DMEM containing the test sample (2'-FL and lactose) at 50 µg/mL, 200 µg/mL, or 1000 µg/mL was added, and cultured for 24 hours in a 37°C, 5% CO2 incubator. The culture supernatant was removed, the cells were washed twice with PBS, and 0.20 mL of RIPA buffer was added to extract total protein. Protein in each protein extract was quantified by the Bradford assay.
as §1, §2

type I collagen = experiment: Type I collagen expression analysis (ELISA); format: cell-based, Human; details: at a concentration of at least 100 µg/mL or more, 48 hours; effect increased from 100 µg/mL to 200 µg/mL; Fig. 9
Protocol: Human normal dermal fibroblasts (NB1RGB) with a PDL of 30 or less were cultured in DMEM (Dulbecco's Modified Eagle Medium, manufactured by Nissui Pharmaceutical Co., Ltd.) containing 10% FBS. The cultured cells were collected by trypsin treatment. The collected cells were seeded in a 96-well plate, and when they reached 100% confluence, FBS-free DMEM containing the test sample (2'-FL and sucrose) at 50 µg/mL, 100 µg/mL, or 200 µg/mL was added, and after culturing for 48 hours in a 37°C, 5% CO2 incubator, the culture supernatant was collected. The culture supernatant was centrifuged, and the resulting supernatant was used as a sample.
The culture supernatant was collected and used as a sample in the same manner as in [Example 8-1], except that FBS-free DMEM not containing the test sample was used instead of FBS-free DMEM containing the test sample.
An Enzyme-Linked Immunosorbent Assay (ELISA) method was performed using an antibody against type I collagen to measure the amount of type I collagen in the samples. […] After stopping the reaction, the absorbance at a measurement wavelength of 450 nm was measured using a microplate reader. […] The relative value of the type I collagen amount when each test sample was added was calculated, with the type I collagen amount in the control set to 1.

SMILES: C[C@@H]1O[C@@H](O[C@H]2[C@H](O[C@H]3[C@H](O)[C@@H](O)C(O)O[C@@H]3CO)O[C@H](CO)[C@H](O)[C@@H]2O)[C@@H](O)[C@H](O)[C@@H]1O (stereo partly shown) [2'-FL, 2'-fucosyllactose]
- GLS1 expression (GLS1 [1]): suppressed GLS1 expression
- laminin secretion (laminin): restored laminin secretion
- GLS1 expression (GLS1 [2]): suppressed GLS1 expression
- expression level of type I collagen (type I collagen): increased the expression level of type I collagen
